Columns and labels:
Assay in all cases: relative viability (nuclei count vs DMSO), 5 days (fraction); higher = more cells survive
Carboplatin + Crizotinib = compound: C1CC(C1)(C(=O)O)C(=O)O.[NH2-].[NH2-].[Pt+2] [Carboplatin] + C[C@@H](Oc1cc(-c2cnn(C3CCNCC3)c2)cnc1N)c1c(Cl)ccc(F)c1Cl [Crizotinib] (partner 1 µM)
How it was run: (§1)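 Relative viability is defined as nuclei in treated wells over nuclei in vehicle wells. Duplicate plates were run and medians reported. Lung cancer cell lines in 1536-well plates were dosed by pin tool one day after seeding, with one drug or with a fixed anchor-drug dose plus five library-drug doses (not always all listed) in √10 steps, and nuclei were counted after 5 days.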

Carboplatin + Linsitinib = compound: C1CC(C1)(C(=O)O)C(=O)O.[NH2-].[NH2-].[Pt+2] [Carboplatin] + C[C@]1(O)C[C@@H](c2nc(-c3ccc4ccc(-c5ccccc5)nc4c3)c3c(N)nccn32)C1 [Linsitinib] (partner 1 µM)
How it was run: as §1

Carboplatin + Alpelisib = compound: C1CC(C1)(C(=O)O)C(=O)O.[NH2-].[NH2-].[Pt+2] [Carboplatin] + Cc1nc(NC(=O)N2CCC[C@H]2C(N)=O)sc1-c1ccnc(C(C)(C)C(F)(F)F)c1 [Alpelisib] (partner 2 µM)
How it was run: as §1

Carboplatin + Olaparib = compound: C1CC(C1)(C(=O)O)C(=O)O.[NH2-].[NH2-].[Pt+2] [Carboplatin] + O=C(c1cc(Cc2n[nH]c(=O)c3ccccc23)ccc1F)N1CCN(C(=O)C2CC2)CC1 [Olaparib] (partner 8 µM)
How it was run: as §1

| Cell Line | relative viability (Carboplatin + Crizotinib; first compound 0.08 µM) | relative viability (Carboplatin + Crizotinib; first compound 0.253 µM) | relative viability (Carboplatin + Crizotinib; first compound 0.8 µM) | relative viability (Carboplatin + Crizotinib; first compound 2.53 µM) | relative viability (Carboplatin + Crizotinib; first compound 8 µM) | relative viability (Carboplatin + Linsitinib; first compound 0.08 µM) | relative viability (Carboplatin + Linsitinib; first compound 0.253 µM) | relative viability (Carboplatin + Linsitinib; first compound 0.8 µM) | relative viability (Carboplatin + Linsitinib; first compound 2.53 µM) | relative viability (Carboplatin + Linsitinib; first compound 8 µM) | relative viability (Carboplatin + Alpelisib; first compound 0.08 µM) | relative viability (Carboplatin + Alpelisib; first compound 0.253 µM) | relative viability (Carboplatin + Alpelisib; first compound 0.8 µM) | relative viability (Carboplatin + Alpelisib; first compound 2.53 µM) | relative viability (Carboplatin + Alpelisib; first compound 8 µM) | relative viability (Carboplatin + Olaparib; first compound 0.08 µM) | relative viability (Carboplatin + Olaparib; first compound 0.253 µM) | relative viability (Carboplatin + Olaparib; first compound 0.8 µM) | relative viability (Carboplatin + Olaparib; first compound 2.53 µM) | relative viability (Carboplatin + Olaparib; first compound 8 µM) |
| --- | --- | --- | --- | --- | --- | --- | --- | --- | --- | --- | --- | --- | --- | --- | --- | --- | --- | --- | --- | --- |
| HCC-15 | 0.914 | 0.875 | 0.775 | 0.688 | 0.643 | 0.9 | 0.892 | 0.888 | 0.812 | 0.7 | 0.93 | 0.93 | 0.84 | 0.761 | 0.707 | 0.664 | 0.729 | 0.693 | 0.57 | 0.492 |
| HCC-44 | 0.752 | 0.822 | 0.742 | 0.751 | 0.668 | 0.668 | 0.685 | 0.606 | 0.478 | 0.543 | 0.904 | 0.887 | 0.733 | 0.717 | 0.635 | 1.02 | 0.93 | 0.972 | 0.944 | 0.952 |
| HCC-78 | 0.367 | 0.325 | 0.315 | 0.308 | 0.304 | 0.509 | 0.461 | 0.416 | 0.46 | 0.511 | 0.291 | 0.391 | 0.317 | 0.285 | 0.33 | 0.888 | 0.851 | 0.574 | 0.684 | 0.726 |
| HCC-366 | 0.518 | 0.659 | 0.445 | 0.465 | 0.154 | 0.848 | 0.595 | 0.48 | 0.437 | 0.265 | 0.476 | 0.552 | 0.344 | 0.294 | 0.314 | 0.387 | 0.363 | 0.364 | 0.288 | 0.208 |
| HCC-827 | 0.97 | 0.93 | 0.916 | 0.816 | 0.87 | 1.04 | 0.891 | 0.857 | 0.936 | 0.955 | 1.07 | 0.962 | 0.9 | 0.944 | 0.893 | 0.61 | 0.651 | 0.639 | 0.593 | 0.564 |
| HOP-62 | 1.04 | 1 | 0.925 | 0.88 | 0.534 | 0.982 | 0.996 | 0.949 | 0.947 | 0.801 | 0.746 | 0.991 | 1.09 | 0.922 | 0.77 | 0.391 | 0.398 | 0.444 | 0.506 | 0.255 |
| IA-LM | 0.772 | 0.818 | 0.767 | 0.694 | 0.486 | 0.617 | 0.766 | 0.632 | 0.582 | 0.461 | 0.995 | 0.904 | 0.669 | 0.881 | 0.465 | 0.836 | 0.74 | 0.715 | 0.905 | 0.57 |
| LC-2-ad | 0.478 | 0.448 | 0.388 | 0.31 | 0.416 | 0.903 | 0.859 | 0.808 | 0.752 | 0.721 | 0.876 | 0.906 | 0.88 | 0.882 | 0.786 | 0.699 | 0.7 | 0.666 | 0.675 | 0.522 |
| LCLC-97TM1 | 0.338 | – | 0.271 | 0.288 | 0.312 | 0.177 | – | 0.17 | 0.195 | 0.192 | 0.262 | – | 0.25 | 0.256 | 0.199 | 0.334 | 0.524 | 0.353 | 0.506 | 0.332 |
| LCLC-103H | 1.06 | 1.01 | 1.01 | 1.19 | 1.01 | 1.15 | 1.1 | 1.05 | 1.21 | 1.04 | 1.1 | 0.975 | 1.09 | 1 | 0.934 | 0.754 | 0.783 | 0.777 | 0.74 | 0.754 |
| LK-2 | 0.196 | 0.224 | 0.242 | 0.233 | 0.228 | 0.634 | 0.765 | 0.458 | 0.428 | 0.726 | 1.41 | 1.23 | 0.837 | 0.961 | 1.09 | 0.743 | 0.702 | 0.726 | 0.65 | 0.844 |
| LOU-NH91 | 0.74 | 0.731 | 0.714 | 0.735 | 0.725 | 1.11 | 0.9 | 0.924 | 0.946 | 0.891 | 0.797 | 0.731 | 0.7 | 0.688 | 0.688 | 0.955 | 0.973 | 0.873 | 0.831 | 0.844 |
| NCI-H522 | – | – | – | – | – | – | – | – | – | – | – | – | – | – | – | 0.586 | 0.663 | 0.618 | 0.679 | 0.607 |
| NCI-H1395 | – | – | – | – | – | 1.02 | 1.05 | 0.82 | 0.751 | 0.576 | 1.18 | 1.03 | 0.768 | 0.68 | 0.578 | 0.509 | 0.467 | 0.505 | 0.41 | 0.46 |
| NCI-H1563 | 0.975 | 0.901 | 0.834 | 0.853 | 0.854 | 1.32 | 1.13 | 1.22 | 1.26 | 1.04 | 1.04 | 0.925 | 0.91 | 0.921 | 0.984 | – | – | – | – | – |
| NCI-H1648 | – | – | – | – | – | – | – | – | – | – | – | – | – | – | – | 1.39 | 1.29 | 1.21 | 0.765 | 0.897 |
| NCI-H1650 | 1.2 | 0.968 | 0.907 | 0.824 | 0.533 | – | – | – | – | – | – | – | – | – | – | 0.85 | 0.815 | 0.752 | 0.492 | 0.471 |
| NCI-H1793 | – | – | – | – | – | 1.04 | 1.1 | 0.675 | 0.848 | 0.839 | 0.874 | 0.645 | 0.561 | 0.751 | 0.588 | 0.802 | 0.909 | 0.82 | 0.675 | 1.04 |
| NCI-H2170 | 1.13 | 1.18 | 1.21 | 1.13 | 0.971 | – | – | – | – | – | 0.882 | 0.852 | 0.801 | 0.794 | 0.636 | 0.621 | 0.668 | 0.555 | 0.567 | 0.37 |
| NCI-H2342 | – | – | – | – | – | – | – | – | – | – | – | – | – | – | – | 0.447 | 0.497 | 0.394 | 0.357 | 0.372 |
| SW 900 | – | – | – | – | – | – | – | – | – | – | – | – | – | – | – | 0.814 | 0.968 | 0.874 | 0.818 | 0.823 |

Reference: the supplement of paper PMC10307832
